“And” between values parts separate entries of the source, which are not always exact repeats. Equal values may be shown once.
Assays:
Type in all cases: in vitro ADME
[1] = Rat liver microsomes stability; conditions: for CLint (μL/min/mg protein) / t1/2 / half-life at 2 μM / microsomal CLint at 2 μM: 2 μM compound; for half-life at 2 μM / microsomal CLint at 2 μM: male, rat; for microsomal CLint at 2 μM: read-out: CLint (μL/min/mg protein)
Protocol: (§1) The objective of this study was to estimate in vitro metabolic stability of exemplary compounds of Formula (I) or a pharmaceutically acceptable salt, solvate, and/or prodrug thereof in pooled human, male rat, and male mouse liver microsomes. The concentrations of compounds in reaction systems were evaluated by LC-MS/MS for estimating the stability in pooled human, male rat, and male mouse liver microsomes. The in vitro intrinsic clearances of test compounds were determined as well.
(§2) A master solution in the “Incubation Plate” containing phosphate buffer, ultra-pure H2O, MgCl2 solution and liver microsomes was made according to Table 33. The mixture was pre-warmed at 37° C. water bath for 5 minutes.
(§3) 40 μL of 10 mM nicotinamide adenine dinucleotide phosphate (NADPH) solution was added to each well. The final concentration of NADPH was 1 mM. The negative control samples were prepared by replacing NADPH with 40 μL of ultra-pure H2O. Samples were prepared in duplicate. Negative controls were prepared in singlet.
(§4) The reaction was started with the addition of 4 μL of 200 μM exemplary test compounds of the disclosure or control compounds to each master solution to get the final concentration of 2 μM. This study was performed in duplicate.
(§5) Aliquots of 50 μL were taken from the reaction solution at 0, 15, 30, 45, and 60 minutes. The reaction solutions were stopped by the addition of 4 volumes of cold methanol with IS (100 nM alprazolam, 200 nM imipramine, 200 nM labet alol and 2 μM ketoprofen). Samples were centrifuged at 3,220 g for 40 minutes. Aliquot of 90 μL of the supernatant was mixed with 90 μL of ultra-pure H2O and then was used for LC-MS/MS analysis.
(§6) LC/MS analysis was performed for all samples from this study using a Shimadzu liquid chromatograph separation system equipped with degasser DGU-20A5R; solvent delivery unit LC-30AD; system controller SIL-30AC; column oven CTO-30A; CTC Analytics HTC PAL System. Mass spectrometric analysis was performed using a Triple Quad™ 5500 instrument.
(§7) All calculations were carried out using Microsoft Excel. Peak area ratios of test compound to internal standard (listed in the below table) were determined from extracted ion chromatograms.
(§8) All calculations were carried out using Microsoft Excel. Peak areas were determined from extracted ion chromatograms. The slope value, k, was determined by linear regression of the natural logarithm of the remaining percentage of the parent drug vs. incubation time curve.
(§9) The in vitro half-life (in vitro t1/2) was determined from the slope value:
(§10) Conversion of the in vitro t1/2(min) into the in vitro intrinsic clearance (in vitro CLint, in μL/min/mg proteins) was done using the following equation (mean of duplicate determinations): […]
(§11) A master solution in the “Incubation Plate” containing phosphate buffer, ultra-pure H2O, MgCl2 solution and liver microsomes was made according to Table 63. The mixture was pre-warmed at 37° C. water bath for 5 minutes.
(§12) 40 μL of 10 mM NADPH solution was added to each well. The final concentration of NADPH was 1 mM. The negative control samples were prepared by replacing NADPH with 40 μL of ultra-pure H2O. Samples were prepared in duplicate. Negative controls were prepared in singlet.
(§13) Conversion of the in vitro t1/2(min) into the in vitro intrinsic clearance (in vitro C Lt, in μL/min/mg proteins) was done using the following equation (mean of duplicate determinations): […]

[2] = Human liver microsomes stability; conditions: for CLint (μL/min/mg protein) / t1/2: 2 μM compound
Protocol: as §1, §2, §3, §4, §5, §6, §7, §8, §9, §10, §11, §12, §13

[3] = Mouse liver microsomes stability; conditions: for microsomal CLint at 2 μM: mouse, read-out: CLint (μL/min/mg protein)
Protocol: as §1, §2, §3, §4, §5, §6, §7, §8, §9, §10, §11, §12, §13

[4] = Rat liver microsomes, 0.5 mg/mL microsomes, 1 mM NADPH
[5] = Rat liver microsomes, 0.5 mg/mL microsomes, 1 mM NADPH, 37° C
[6] = rat liver microsomes, 0.5 mg/mL
[7] = rat liver microsomes, With Cofactors, 0 min
[8] = rat liver microsomes, With Cofactors, 30 min
[9] = rat liver microsomes, With Cofactors, 60 min
[10] = rat liver microsomes, Without Cofactors, 0 min
[11] = rat liver microsomes, Without Cofactors, 30 min
[12] = rat liver microsomes, Without Cofactors, 60 min
[13] = human liver microsomes, 0.5 mg/mL
[14] = human liver microsomes, With Cofactors, 0 min
[15] = human liver microsomes, With Cofactors, 30 min
[16] = human liver microsomes, With Cofactors, 60 min
[17] = human liver microsomes, Without Cofactors, 0 min
[18] = human liver microsomes, Without Cofactors, 30 min
[19] = human liver microsomes, Without Cofactors, 60 min
[20] = mouse liver microsomes, 2 μM compound, 0.5 mg/mL
[21] = mouse liver microsomes, With Cofactors, 0 min
[22] = mouse liver microsomes, With Cofactors, 30 min
[23] = mouse liver microsomes, With Cofactors, 60 min
[24] = mouse liver microsomes, Without Cofactors, 0 min
[25] = mouse liver microsomes, Without Cofactors, 30 min
[26] = mouse liver microsomes, Without Cofactors, 60 min
[27] = pooled liver microsomes, rat liver microsomes, 0.5 mg/mL

COc1ccc2[nH]cc(CCN(C)C)c2c1 [Compound 5-MeO-DMT]
Predicted hepatic CL ([1]; Rat liver microsomes): 49.02 mL/min/kg
Scaled-up CLint ([1]; Rat liver microsomes): 437.56 mL/min/kg
CLint (μL/min/mg protein) [1, 4]: 244.17 μL/min/mg protein
t1/2 [1, 5]: 5.68 min
Predicted hepatic CL ([1]; rat liver microsomes): 49.02 mL/min/kg
Scaled-up CLint ([1]; rat liver microsomes): 437.56 mL/min/kg
CLint (μL/min/mg protein) [1, 6]: 244.17 μL/min/mg protein
t1/2 [1, 6]: 5.68 min
Remaining Percentage (%) [1, 7]: 100.00%
Remaining Percentage (%) [1, 8]: 2.57%
Remaining Percentage (%) [1, 9]: 0.36%
Remaining Percentage (%) [1, 10]: 100.00%
Remaining Percentage (%) [1, 11]: 49.55%
Remaining Percentage (%) [1, 12]: 23.82%
Predicted hepatic CL ([2]; Human liver microsomes): 18.09 mL/min/kg
Scaled-up CLint ([2]; Human liver microsomes): 143.22 mL/min/kg
CLint (μL/min/mg protein) ([2]; Human liver microsomes, 0.5 mg/mL microsomes, 1 mM NADPH): 114.19 μL/min/mg protein
t1/2 ([2]; Human liver microsomes, 0.5 mg/mL microsomes, 1 mM NADPH, 37° C): 12.14 min
Predicted hepatic CL ([2]; human liver microsomes): 18.09 mL/min/kg
Scaled-up CLint ([2]; human liver microsomes): 143.22 mL/min/kg
CLint (μL/min/mg protein) [2, 13]: 114.19 μL/min/mg protein
t1/2 [2, 13]: 12.14 min
Remaining Percentage (%) [2, 14]: 100.00%
Remaining Percentage (%) [2, 15]: 19.24%
Remaining Percentage (%) [2, 16]: 3.25%
Remaining Percentage (%) [2, 17]: 100.00%
Remaining Percentage (%) [2, 18]: 18.58%
Remaining Percentage (%) [2, 19]: 3.00%
Predicted hepatic CL ([3]; Mouse liver microsomes): 54.19 mL/min/kg
Scaled-up CLint ([3]; Mouse liver microsomes): 136.21 mL/min/kg
CLint (μL/min/mg protein) ([3]; Mouse liver microsomes, 2 μM compound, 0.5 mg/mL microsomes, 1 mM NADPH): 31.13 μL/min/mg protein
t1/2 ([3]; Mouse liver microsomes, 2 μM compound, 0.5 mg/mL microsomes, 1 mM NADPH, 37° C): 44.52 min
Predicted hepatic CL ([3]; mouse liver microsomes): 54.19 mL/min/kg
Scaled-up CLint ([3]; mouse liver microsomes): 136.21 mL/min/kg
CLint (μL/min/mg protein) [3, 20]: 31.13 μL/min/mg protein
t1/2 [3, 20]: 44.52 min
Remaining Percentage (%) [3, 21]: 100.00%
Remaining Percentage (%) [3, 22]: 61.84%
Remaining Percentage (%) [3, 23]: 39.30%
Remaining Percentage (%) [3, 24]: 100.00%
Remaining Percentage (%) [3, 25]: 104.76%
Remaining Percentage (%) [3, 26]: 95.24%

O=C(O)Cc1ccccc1Nc1c(Cl)cccc1Cl [Diclofenac]
Predicted hepatic CL ([1]; Rat liver microsomes): 41.22 mL/min/kg and 41.25 mL/min/kg
CLint (μL/min/mg protein) [1, 4]: 91.05 μL/min/mg protein
t1/2 [1, 5]: 15.22 min
half-life at 2 μM ([1]; liver microsomes, Rat liver microsomes, 0.5 mg/mL microsomes, 1 mM NADPH, 37° C): 15.3 min
microsomal CLint at 2 μM ([1]; liver microsomes, Rat liver microsomes, 0.5 mg/mL microsomes, 1 mM NADPH): 90.8 µL/min/mg
half-life at 2 μM [1, 27]: 15.1 min
microsomal CLint at 2 μM [1, 27]: 91.9 µL/min/mg
Predicted hepatic CL ([1]; rat liver microsomes): 41.34 mL/min/kg and 41.25 mL/min/kg
CLint (μL/min/mg protein) [1, 6]: 91.05 μL/min/mg protein
t1/2 [1, 6]: 15.22 min
Remaining Percentage (%) [1, 7]: 100.00%
Remaining Percentage (%) [1, 8]: 11.86%
Remaining Percentage (%) [1, 9]: 6.35%
Remaining Percentage (%) [1, 10]: 100.00%
Remaining Percentage (%) [1, 11]: 102.19%
Remaining Percentage (%) [1, 12]: 100.63%
Predicted hepatic CL ([2]; Human liver microsomes): 18.38 mL/min/kg and 18.35 mL/min/kg
Predicted hepatic CL ([2]; human liver microsomes): 18.44 mL/min/kg and 18.35 mL/min/kg
Remaining Percentage (%) [2, 14]: 100.00%
Remaining Percentage (%) [2, 15]: 5.01%
Remaining Percentage (%) [2, 16]: 1.77%
Remaining Percentage (%) [2, 17]: 100.00%
Remaining Percentage (%) [2, 18]: 112.67%
Remaining Percentage (%) [2, 19]: 96.67%
Predicted hepatic CL ([3]; Mouse liver microsomes): 54.78 mL/min/kg and 56.11 mL/min/kg
microsomal CLint at 2 μM ([3]; male, liver microsomes, Mouse liver microsomes, 2 μM compound, 0.5 mg/mL microsomes, 1 mM NADPH): 32 µL/min/mg
microsomal CLint at 2 μM ([3]; male, pooled liver microsomes, mouse liver microsomes, 2 μM compound, 0.5 mg/mL): 32 µL/min/mg
half-life at 2 μM ([3]; male, Mouse liver microsomes, 2 μM compound, 0.5 mg/mL microsomes, 1 mM NADPH, 37° C): 40.7 min
Predicted hepatic CL ([3]; mouse liver microsomes): 54.78 mL/min/kg and 57.42 mL/min/kg
Scaled-up CLint ([3]; mouse liver microsomes): 158.60 mL/min/kg
CLint (μL/min/mg protein) [3, 20]: 36.25 μL/min/mg protein
t1/2 [3, 20]: 38.23 min
Remaining Percentage (%) [3, 21]: 100.00%
Remaining Percentage (%) [3, 22]: 45.55%
Remaining Percentage (%) [3, 23]: 33.71%
Remaining Percentage (%) [3, 24]: 100.00%
Remaining Percentage (%) [3, 25]: 89.49%
Remaining Percentage (%) [3, 26]: 96.59%

Reference: patent US20250257034A1, “INDOLE DERIVATIVES AS SEROTONERGIC AGENTS USEFUL FOR THE TREATMENT OF DISORDERS RELATED THERETO” (priority 2023, published 2025)
